Data as given in EP1021178B1, “SELENOPHENE ANTI-TUMOR AGENTS” (Purdue Research Foundation, priority 1996, dated 1997).
Read-outs that look alike come from different tables or passages of the source.

Legend:
[1] = test system: human tumor cell line panels; assay: NCI human tumor cell panel, whole-panel summary (mean graph) and lines without a row head; details: for Log10 TGI, Delta / Log10 TGI, Range / Log10 LC50, Delta: whole panel
COLO 205 = assay: NCI human tumor cell panel; details: for CC50: COLO 205, read-out: Log10 LC50 (converted)
OVCAR-4 = assay: NCI human tumor cell panel; format: cell-based; details: OVCAR-4, read-out: Log10 LC50 (converted)
NCI-H322M = assay: NCI human tumor cell panel; format: cell-based; details: read-out: Log10 LC50 (converted)
MCF7/ADR-RES = assay: NCI human tumor cell panel; format: cell-based; details: MCF7, read-out: Log10 LC50 (converted)
SK-MEL-28 = assay: NCI human tumor cell panel; format: cell-based; details: SK-MEL-28, read-out: Log10 LC50 (converted)
MDA-MB-231/ATCC = assay: NCI human tumor cell panel; format: cell-based
UACC-257 = assay: NCI human tumor cell panel; format: cell-based; details: UACC-257, read-out: Log10 LC50 (converted)
CAKI-1 = assay: NCI human tumor cell panel; format: cell-based; details: CAKI-1, read-out: Log10 LC50 (converted)
T-47D = assay: NCI human tumor cell panel; format: cell-based; details: T47D, read-out: Log10 LC50 (converted)
U251 = assay: NCI human tumor cell panel; format: cell-based; details: U-251, read-out: Log10 LC50 (converted)
MCF7 = assay: NCI human tumor cell panel; format: cell-based; details: MCF7, read-out: Log10 LC50 (converted)
SK-OV-3 = assay: NCI human tumor cell panel; details: for CC50: SK-OV-3, read-out: Log10 LC50 (converted)
NCI-H226 = assay: NCI human tumor cell panel; details: for CC50: NCI-H226, read-out: Log10 LC50 (converted)
SNB-19 = assay: NCI human tumor cell panel; details: for CC50: SNB-19, read-out: Log10 LC50 (converted)
OVCAR-3 = assay: NCI human tumor cell panel; details: OVCAR-3, read-out: Log10 LC50 (converted)
RXF-393 = assay: NCI human tumor cell panel; format: cell-based; details: RXF 393, read-out: Log10 LC50 (converted)
SF-268 = assay: NCI human tumor cell panel; format: cell-based; details: SF-268, read-out: Log10 LC50 (converted)
HL-60(TB) = assay: NCI human tumor cell panel; details: for CC50: HL-60, read-out: Log10 LC50 (converted); for IC (TGI): HL-60, read-out: Log10 TGI
[2] = Homo sapiens, read-out: Log10 TGI
[3] = MDA-MB-231, read-out: Log10 LC50, Breast Cancer (converted), MDA-MB-231/ATCC
[4] = MDA-MB-231, read-out: Log10 LC50, MDA-MB-231/ATCC (converted)
[5] = Homo sapiens, read-out: Log10 GI50, Delta, Delta, whole panel (converted)

| Compound | CC50 (COLO 205) [µM] | CC50 (OVCAR-4) [µM] | LC50 (concentration killing 50% of cells) (NCI-H322M) [µM] | CC50 (MCF7/ADR-RES) [µM] | CC50 (SK-MEL-28) [µM] | CC50 (MDA-MB-231/ATCC; [3]) [µM] | CC50 (UACC-257) [µM] | LC50 (CAKI-1) [µM] | CC50 (T-47D) [µM] | CC50 (U251) [µM] | CC50 (MCF7) [µM] | CC50 (SK-OV-3) [µM] | CC50 (NCI-H226) [µM] | CC50 (SNB-19) [µM] | CC50 (OVCAR-3) [µM] | CC50 (RXF-393) [µM] | LC50 (concentration killing 50% of cells) (SF-268) [µM] | CC50 (HL-60(TB)) [µM] | Log10 TGI, Delta [1] | Log10 TGI, Range [1] | also measured |
| --- | --- | --- | --- | --- | --- | --- | --- | --- | --- | --- | --- | --- | --- | --- | --- | --- | --- | --- | --- | --- | --- |
| O=Cc1ccc(-c2ccc(-c3ccc(C=O)[se]3)s2)s1 | 91.2 | > 100 | > 100 | > 100 | > 100 | > 100 | > 100 | 29.5 | > 100 | > 100 | > 100 | > 100 | > 100 | > 100 | > 100 |  |  |  |  |  | IC (TGI) [1, 2]: 44.7 µM; IC (TGI) (NCI-H226; NCI-H226, read-out: Log10 TGI): > 100 µM; IC (TGI) (SNB-19; SNB-19, read-out: Log10 TGI): > 100 µM |
| OCc1ccc(-c2ccc(-c3ccc(CO)[se]3)s2)s1 | 61.7 | 81.3 | > 100 | > 100 | > 100 | 97.7 | 0.24 |  |  | 72.4 | > 100 | 51.3 |  | > 100 | 50.1 |  |  |  |  |  |  |
| OCc1ccc(-c2ccc(-c3ccc[se]3)s2)[se]1 | 66.1 | > 100 | > 100 | 97.7 | > 100 | > 100 | 0.457 | 64.6 | > 100 | 44.7 | > 100 | > 100 | 0.525 | > 100 | 40.7 | > 100 | > 100 | > 100 |  |  | IC (TGI) (COLO 205; COLO 205, read-out: Log10 TGI): 12.6 µM |
| OCc1ccc(-c2ccc(-c3ccc[se]3)[se]2)[se]1 | > 100 | 47.9 | 47.9 | > 100 | 53.7 | > 100 |  | 51.3 | 44.7 | 55 | 29.5 |  |  | > 100 | 6.92 |  | > 100 | > 100 |  |  |  |
| OCc1ccc(-c2ccc(-c3ccc(CO)[se]3)[se]2)[se]1 | 17.8 | 49 | 52.5 | > 100 | > 100 |  | 31.6 | 13.2 |  | 50.1 | 47.9 |  | 9.12 | 91.2 | 5.37 | 8.71 | 20.9 |  |  |  | IC (TGI) [1, 2]: 10.5 µM |
| OCc1ccc(-c2ccc(-c3ccc(CO)s3)[se]2)s1 | 22.9 | > 100 | > 100 | > 100 | > 100 | > 100 |  | > 100 | > 100 | > 100 | > 100 | > 100 | > 100 | > 100 | > 100 | > 100 | > 100 | > 100 |  |  | IC (TGI) (SK-OV-3; SK-OV-3, read-out: Log10 TGI): > 100 µM |
| OCc1ccc(-c2ccc(-c3ccc(CO)[se]3)s2)[se]1 |  | > 100 | > 100 | > 100 | > 100 | > 100 |  | > 100 |  | 46.8 | > 100 |  | > 100 | > 100 | > 100 | > 100 | > 100 | > 100 |  |  |  |
| OCc1ccc(-c2ccc(-c3cccs3)[se]2)s1 |  | > 100 | > 100 | > 100 | > 100 |  | 0.0525 |  | > 100 | > 100 | > 100 | > 100 | 0.224 | > 100 | > 100 | > 100 | > 100 | > 100 | 3.46 | 4.00 | GI50 ([1]; Homo sapiens, read-out: Log10 GI50, MG_MID (converted)): 5.25 µM; CC50 ([1]; Homo sapiens, read-out: Log10 LC50, MG_MID (converted)): 61.7 µM; IC (TGI) ([1]; Homo sapiens, read-out: Log10 TGI, MG_MID): 28.8 µM; CC50 (MDA-MB-231/ATCC; [4]): > 100 µM |
| O=Cc1ccc(-c2ccc(-c3ccc(C=O)[se]3)s2)[se]1 | > 100 | > 100 | > 100 | > 100 | > 100 |  | 6.92 | > 100 | > 100 | > 100 | > 100 | > 100 | 2.45 | > 100 | > 100 | > 100 | > 100 | > 100 | -4.17 | 2.18 | Log10 LC50, Delta [1]: -4.07; CC50 (MDA-MB-231/ATCC; [4]): > 100 µM; IC (TGI) (HL-60(TB)): > 100 µM |
| O=Cc1ccc(-c2ccc(-c3ccc(C=O)[se]3)[se]2)[se]1 | > 100 | > 100 | > 100 | > 100 | > 100 |  | > 100 | > 100 | > 100 | > 100 | > 100 |  | > 100 | > 100 | > 100 | > 100 | > 100 | > 100 | -4.18 | 1.91 | Log10 LC50, Delta [1]: -4.02; GI50 [1, 5]: 21.4 µM; CC50 (MDA-MB-231/ATCC; [4]): > 100 µM |
| O=Cc1ccc(-c2ccc(-c3ccc[se]3)[se]2)[se]1 | 34.7 | 60.3 | 60.3 |  | 55 |  | 33.1 | 14.5 | 47.9 | 47.9 | 43.7 |  | 38.9 | 87.1 | 30.9 | > 100 | > 100 | > 100 | -4.78 | 1.37 | Log10 LC50, Delta [1]: -4.25; GI50 [1, 5]: 3.72 µM |
| O=Cc1ccc(-c2ccc(-c3cccs3)[se]2)s1 | > 100 | > 100 | > 100 | > 100 | > 100 |  | 0.309 |  | 91.2 | > 100 | > 100 | > 100 | 1.05 | > 100 | > 100 | > 100 | > 100 | > 100 | -4.42 | 3.13 | Log10 LC50, Delta [1]: -4.13; GI50 [1, 5]: 6.76 µM |
| O=Cc1ccc(-c2ccc(-c3ccc(C=O)s3)[se]2)s1 | > 100 | > 100 | > 100 | > 100 | > 100 |  | 5.75 | > 100 | > 100 | 89.1 | > 100 | > 100 | 8.51 | > 100 | 4.07 | > 100 | > 100 | > 100 | -4.21 | 1.61 | Log10 LC50, Delta [1]: -4.07; GI50 [1, 5]: 17.8 µM; CC50 (MDA-MB-231/ATCC; [4]): > 100 µM; IC (TGI) (HL-60(TB)): > 100 µM |
